{"source": "patent EP2338492A1", "about": "“Methods and compositions for the treatment of alzheimer” (Universidad del Pais Vasco, priority 2009, dated 2011)", "key": {"[1]": {"test_system": "neurons", "test": "Measurement of mitochondrial Ca2+ (Rhod-2 AM)", "format": "cell-based, Sprague-Dawley rat", "conditions": "for effect on Aβ-induced [Ca2+]mit rise: Aβ 5 µM together with NMDA receptor antagonist", "text": "(§1) Primary neuron cultures were obtained from the cortical lobes of E18 Sprague-Dawley rat embryos according to previously described procedures (Gottlieb M. et al. 2006. Neurobiol. Dis. 23 374-386.) Cells were resuspended in B27 Neurobasal medium plus 10% FBS (Sigma; St Louis, MO, USA) and then seeded onto poly-1-ornithine-coated glass coverslips at 1x10^5 cells per coverslip (12 mm in diameter) and 48-well plates at 1.5 x 10^5 per well. One day later, the medium was replaced by serum-free-, B27-supplemented Neurobasal medium. The cultures were essentially free of astrocytes and microglia; they were maintained at 37°C and 5% CO2. Cultures were used 8-10 days after plating.\nRhod-2 AM (Molecular Probes, Invitrogen, Barcelona, Spain) was used to measure mitochondrial Ca^2+ according to the previous procedure with modifications (G. Hajnóczky, L.D. et al. 1995. Cell 82 415-424) Rhod2-AM has a net positive charge, which facilitates its sequestration into mitochondria due to membrane potential-driven uptake. Cells were loaded with 2 µM rhod2-AM for 6 hours. The residual cytosolic fraction of the dye was eliminated when the cells were kept in culture for an additional 18h after loading, whereas the mitochondrial dye fluorescence was maintained. Fluorescence images of rhod-2 were acquired using 550 nm excitation and 590 nm emission. The fluorescence of rhod-2 was not calibrated in terms of [Ca^2+]mit since it is not a ratiometric dye."}, "[2]": {"test_system": "Cortical neurons", "test": "Cell viability and toxicity assay (LDH release)", "format": "cell-based, Sprague-Dawley rat", "text": "as §1\nAntagonists and inhibitors were added to the cultures 30 min before the Aβ. Twenty four hours after drug application, cellular damage was estimated by measuring the level of lactate dehydrogenase released (LDH; Cytotox 96®, Promega, Madison, WI) from damaged cells into the culture media. Data were normalized to the activity of LDH released from vehicle-treated cells (100%) and calculated as a percentage of the control. Results were expressed as the means ± SEM of at least three independent experiments performed in triplicates."}, "[3]": {"test_system": "neurons from CA1 in organotypic slices", "test": "Measurement of Ca2+ in organotypic slices (fluo-4)", "format": "cell-based", "conditions": "for [Ca2+]i in CA1 neurons of organotypic slices: kainate 1 mM (positive control)", "text": "(§2) Brain was removed and two hemispheres were separated in HBSS. Thalamus and midbrain was removed and each hemisphere sliced with a tissue chopper (McIlwan Tissue Chopper, Campden Instruments Ltd, Lafayette, IN, USA) in order to obtain coronal slices of 400 µm of thickness. Entorhinal cortex, in connection with hippocampus, were isolated under a dissection microscope, 2 slices plated on each Millicell CM culture inserts (Millipore Ibérica, Madrid, Spain) and maintained in Neurobasal medium supplemented with 0.5% B27, 25% horse serum, 25% HBSS and […] gentamycin at 37°C. Experiments were performed at 7-10 days in vitro.\nCa^2+ levels in hippocampus were monitored by fluorescence microscopy using the Ca^2+ indicator fluo-4 (Molecular Probes, Invitrogen, Barcelona, Spain). Slices were incubated with fluo-4-AM (5 µM and 0.01 % of pluronic acid) for 45 min at 37 °C. Experiments were performed in a chamber continuously perfused with incubation buffer. Drugs were perfused by a micromanifold with a quartz/polyimide tube of 200 µm ID, attached to a micromanipulator in order to perfuse the drugs directly to the cells. The perfusion chamber was mounted on the stage of a Leica DMLFSA up-right microscope equipped with a 150 W xenon lamp Polychrome V (T.I.L.L. Photonics, Martinsried, Germany) and a HCX Apo 40 x water immersion objective (Leica). Cells were visualized with a CCD camera (EM CCD 9100; Hamamatsu Photonics Iberica, Barcelona, Spain)."}, "[4]": {"test_system": "Cortical neurons", "test": "Analysis of mitochondrial membrane potential (JC-1)", "format": "cell-based, Sprague-Dawley rat", "conditions": "Aβ 5 µM, 2 hours, in conjunction with GluR antagonist", "text": "as §1\nBriefly, after drug treatment, cells were loaded with 3 µM JC-1 for 15 min at 37°C and were washed with HBSS without phenol red by two times to eliminate the excess of dye. In the cytosol the monomeric form of this dye fluoresces green (excitation at 485 nm, emission at 527 nm), whereas within the mitochondrial matrix highly concentrated JC-1 forms aggregates that fluoresce red (excitation at 485 nm, emission at 590 nm). Both JC-1 monomers and aggregates were detectable using a Synergy-HT fluorimeter (Bio-Tek Instruments Incl, Beverly, MA, USA) and the changes in mitochondrial potential were calculated as the red/green ratio in each condition. All experiments (n≥3) were performed at least in triplicate and plotted as meant SEM."}, "[5]": {"test_system": "entorhinal cortex-hippocampus organotypic cultures", "test": "Cell death in organotypic cultures by propidium iodide uptake", "format": "cell-based", "conditions": "Aβ oligomers 100 nM, 4 days, co-incubation with MK801 10 µM or CNQX 30 µM", "text": "as §2\nAntagonists were added to cultures 30 min before the Aβ. Cell death in organotypic cultures was evaluated by cellular uptake of propidium iodide (PI). Slices were stained by adding 10 µM PI into the culture for 2 h at 37°C and washed with PBS by two times for 10 min. Slices were fixed with 4% PFA in PBS for 40 min at room temperature. Afterwards, the slices were excited with 510―560 nm light and the emitted fluorescence acquired at 610 nm using a rhodamine filter on an inverted fluorescence microscope (Cell Observer Z1, Zeiss). PI fluorescence images were captured with a Plan NeoFluar 2.5 x objective (Zeiss), using an EM CCD camera (Hamamatsu, C9100-13), controlled by Axio Vision program (Zeiss). Images were analyzed with the ImageJ analysis program (NIH, MD, USA) and neuronal cell death was expressed as the percentage of the mean gray value of each treatment vs. control."}, "[6]": {"test_system": "cultured cortical neurons", "test": "Ca2+ imaging in the cytosol (fura-2 AM)", "format": "cell-based, Sprague-Dawley rat", "conditions": "for effect on Aβ-induced increase in [Ca2+]i: Aβ 5 µM, coapplication, NMDA antagonists n=70, voltage-gated Ca2+ channel inhibitors n=66", "text": "as §1\n[Ca^2+]¡ was determined according to the method described previously (G. Grynkiewicz, et al. 1985. J. Biol. Chem. 260:3440-3450). Neurons were loaded with fura-2 AM (5 µM; Molecular Probes, Invitrogen, Barcelona, Spain) in culture medium for 30 min at 37°C. Cells were washed in HBSS containing 20 mM HEPES, pH 7.4, 10 mM glucose, and 2 mM CaCl2 (incubation buffer) for 10 min at room temperature. Experiments were performed in a coverslip chamber continuously perfused with incubation buffer at 4 ml/min. The perfusion chamber was mounted on the stage of a inverted epifluorescence microscope (Zeiss Axiovert 35; Oberkochen, Germany) equipped with a 150 W xenon lamp Polychrome IV (T.I.L.L. Photonics, Martinsried, Germany) and a Plan Neofluar 40 x oil immersion objective (Zeiss). Cells were visualized with a high-resolution digital black/white CCD camera (ORCA C4742-80-12 AG; Hamamatsu Photonics Iberica). […] At the end of the assay, in situ calibration was performed with the successive addition of […] and 2 M Tris/50 mM EGTA, pH 8.5. Data were analyzed with Excel (Microsoft, Seattle, WA, USA) and Prism (GraphPad Software, San Diego, CA, USA) software."}, "[7]": {"test_system": "Cortical neurons", "test": "Measurement of intracellular reactive oxygen species (CM-H2DCFDA)", "format": "cell-based, Sprague-Dawley rat", "conditions": "2 hours", "text": "as §1\nNeurons were exposed to Aβ oligomers alone or with GluR antagonists as described. Cells were loaded with CM-H2DCFDA at 30 µM to assay the ROS levels. Calcein-AM (1 µM; Molecular Probes, Invitrogen, Barcelona, Spain) was used to quantify the number of cells within the reading field. Fluorescence was measured using a Synergy-HT fluorimeter (Bio-Tek Instruments Incl, Beverly, MA, USA; excitation at 485 nm, emission at 527 nm). All experiments (n≥3) were performed at least in quadruplicate and plotted as means ± SEM."}, "[8]": {"test_system": "AMPA receptors", "test": "Whole-cell patch-clamp recording of Aβ-induced currents with Mg2+, no glycine, with or without cyclothiazide", "format": "cell-based, Sprague-Dawley rat", "conditions": "Aβ 1 µM + CTZ 100 µM; CNQX 30 µM; n=6", "text": "as §1\nWhole-cell recordings were performed at room temperature using the EPC-7 patch-clamp amplifier (HEKA Elektronik, Lambrecht, Germany). Currents were recorded at a holding membrane potential of -70 mV. Extracellular bath solution with a pH of 7.3 contained the following (in mM): 140 NaCl, 5 KCl, 2.5 CaCl2, 1 MgCl2, 10 HEPES and 10 mM glucose. Patch-clamp pipettes (3-5 MΩ) were filled with internal solution at a pH of 7.3 containing the following (in mM): 140 K-gluconate, 1 CaCl2, 2 MgCl2, 10 HEPES, 10 EGTA, 2 Mg-ATP, 0.2 Na-GTP.\nWe then measured the effects of antagonists of NMDA or AMPA receptor on [Ca^2+]¡ in neurons exposed to Aβ plus CTZ (5 µM and 100 µM, respectively; Fig 2B)."}, "[9]": {"test_system": "NMDA receptor", "format": "cell-based, Sprague-Dawley rat"}, "[10]": {"conditions": "Aβ 5 µM, 24 h, AP5 100 µM, MK801 50 µM, memantine 50 µM, CNQX 30 µM, ZVAD-F 50 µM, DEVD 100 µM, DPQ 30 µM, added 30 min before Aβ"}, "[11]": {"conditions": "Aβ 5 µM, in conjunction with GluR antagonist"}}, "note": "Where two headings read alike, the source gives them in different places."}
{"molecule": "N#CC(C#N)=NNc1ccc(OC(F)(F)F)cc1", "note": "[FCCP]", "values": [{"measurement": "rhod-2 fluorescence (mitochondrial Ca2+)", "setting": "[1]; FCCP 25 µM, internal control", "value": "rapid and transitory reduction of rhod-2 fluorescence"}]}
{"molecule": "O=C1NCCc2c(OCCCCN3CCCCC3)cccc21", "note": "[DPQ]", "values": [{"measurement": "effect on Aβ toxicity (Aβ-induced cell death)", "setting": "[2]; [10]", "value": "reduced"}]}
{"molecule": "C=C(C)[C@H]1CN[C@H](C(=O)O)[C@H]1CC(=O)O", "note": "[Kainate]", "values": [{"measurement": "[Ca2+]i in CA1 neurons of organotypic slices", "setting": "[3]; Aβ 20 µM in the pipette", "value": "increases"}]}
{"molecule": "6-Cyano-7-nitroquinoxaline-2,3-dione [CNQX]", "values": [{"measurement": "mitochondrial potential with respect to control (100%, non-treated cells)", "setting": "[4]", "value": "86 ± 3", "unit": "%"}, {"measurement": "effect on Aβ toxicity (Aβ-induced cell death)", "setting": "[2]", "value": "greatly attenuated"}, {"measurement": "PI uptake, fold as compared to control slices treated with antagonist alone", "setting": "[5]; entorhinal cortex", "value": "0.73 ± .01 fold"}, {"measurement": "PI uptake, fold as compared to control slices treated with antagonist alone", "setting": "[5]; hippocampus", "value": "1.3 ± 0.4", "unit": "fold"}, {"measurement": "effect on Aβ-induced [Ca2+]i response in organotypic slices", "setting": "[3]; Aβ 20 µM in the pipette, MK801 50 µM (n=9), CNQX 30 µM (n=43), both (n=50)", "value": "greatly reduced"}, {"measurement": "[Ca2+]i increase, % of control", "setting": "[6]", "value": "50 ± 4 % of control"}, {"measurement": "ROS levels with respect to control (100%, non-treated cells)", "setting": "[7]; [11]", "value": "106 ± 6.3", "unit": "%"}, {"measurement": "effect on current activated by Aβ with CTZ", "setting": "[8]", "value": "blocked"}, {"measurement": "Aβ-produced inward current, Aβ + CNQX vs 100 % Aβ alone", "setting": "[9]", "value": "98.3 ± 6.8", "unit": "%"}]}
{"molecule": "Aβ oligomers: soluble Aβ1-42 oligomers prepared from Aβ1-42 (ABX) in Hams F-12 at 4°C for 24 h", "values": [{"measurement": "[Ca2+]i in CA1 neurons of organotypic slices", "setting": "[3]; Aβ 20 µM in the pipette", "value": "increased"}, {"measurement": "ROS levels with respect to control (100%, non-treated cells)", "setting": "[7]; Aβ 5 µM alone", "value": "124 ± 7.8", "unit": "%"}, {"measurement": "[Ca2+]mit levels with respect to the control assay (incubation buffer)", "setting": "[1]; Aβ 5 µM", "value": "increased"}]}
{"molecule": "C[C@]12N[C@H](Cc3ccccc31)c1ccccc12", "note": "[MK801]", "values": [{"measurement": "mitochondrial potential with respect to control (100%, non-treated cells)", "setting": "[4]", "value": "85 ± 3", "unit": "%"}, {"measurement": "effect on Aβ toxicity (Aβ-induced cell death)", "setting": "[2]", "value": "greatly attenuated"}, {"measurement": "PI uptake, fold as compared to control slices treated with antagonist alone", "setting": "[5]; entorhinal cortex", "value": "1.2 ± 0.4", "unit": "fold"}, {"measurement": "PI uptake, fold as compared to control slices treated with antagonist alone", "setting": "[5]; hippocampus", "value": "0.9 ± 0.2", "unit": "fold"}, {"measurement": "effect on Aβ-induced [Ca2+]i response in organotypic slices", "setting": "[3]", "value": "greatly reduced"}, {"measurement": "effect on Aβ-induced increase in [Ca2+]i", "setting": "[6]", "value": "nearly abolished"}, {"measurement": "ROS levels with respect to control (100%, non-treated cells)", "setting": "[7]; [11]", "value": "104 ± 3.4", "unit": "%"}, {"measurement": "effect on Aβ-induced [Ca2+]mit rise", "setting": "[1]", "value": "reduced"}]}
{"molecule": "N[C@H](CCCP(=O)(O)O)C(=O)O", "note": "[AP5, D-(-)-2-Amino-5-phosphonopentanoic acid]", "values": [{"measurement": "mitochondrial potential with respect to control (100%, non-treated cells)", "setting": "[4]", "value": "90 ± 2", "unit": "%"}, {"measurement": "effect on Aβ toxicity (Aβ-induced cell death)", "setting": "[2]; [10]", "value": "greatly attenuated"}, {"measurement": "[Ca2+]i increase, % of control", "setting": "[6]; Aβ 5 µM plus CTZ 100 µM, CNQX 30 µM (n=17), AP5 100 µM (n=17), both (n=18)", "value": "45 ± 2 % of control"}, {"measurement": "effect on Aβ-induced increase in [Ca2+]i", "setting": "[6]", "value": "nearly abolished"}, {"measurement": "ROS levels with respect to control (100%, non-treated cells)", "setting": "[7]; [11]", "value": "102 ± 11", "unit": "%"}, {"measurement": "effect on Aβ-induced [Ca2+]mit rise", "setting": "[1]", "value": "reduced"}, {"measurement": "effect on Aβ oligomer-induced inward current", "setting": "[9]", "value": "reduced the peak of the currents"}]}
